Measurements reported in US20260273073A1, “TRANSDUCIN BETA-LIKE PROTEIN 1 DEGRADERS” (Ohio State Innovation Foundation, priority 2023, published 2026).
Read-outs that look alike come from different tables or passages of the source.

Experiments:
Format in all cases: cell-based
[1] = test system: Riva; test: PROTAC compounds evaluated against lymphoma cell line Riva
Method: (§1) A library of PROTAC compounds was prepared according to the sequences depicted in FIGS. 1 and 2. These compounds were evaluated against three different lymphoma cell lines (Riva, Pfeiffer, and Granta-519): […]

[2] = test system: Pfeiffer; test: PROTAC compounds evaluated against lymphoma cell line Pfeiffer
Method: as §1

[3] = test system: Granta-519; test: PROTAC compounds evaluated against lymphoma cell line Granta-519; conditions: Granta-519 lymphoma cell line
Method: as §1

| SMILES | IC50 [1] [nM] | IC50 [2] [nM] | IC50 [3] [nM] | IC50 ([2]; Homo sapiens) [nM] | IC50 ([3]; Homo sapiens) [nM] |
| --- | --- | --- | --- | --- | --- |
| CC1CC(C)CN(S(=O)(=O)c2ccc3c(c2)C(=NO)c2cc(S(=O)(=O)N4CCN(C(=O)CCNc5cccc6c5C(=O)N(C5CCC(=O)NC5=O)C6=O)CC4)ccc2C3=NO)C1 (stereo not drawn) [RY-3-119] | 797 | 564 | 399 | – | – |
| CC1CC(C)CN(S(=O)(=O)c2ccc3c(c2)C(=NO)c2cc(S(=O)(=O)N4CCN(C(=O)CCOCCNc5cccc6c5C(=O)N(C5CCC(=O)NC5=O)C6=O)CC4)ccc2C3=NO)C1 (stereo not drawn) [RY-3-122] | > 20000 | > 20000 | > 20000 | – | – |
| CC1CC(C)CN(S(=O)(=O)c2ccc3c(c2)C(=NO)c2cc(S(=O)(=O)N4CC(C)CC(C)C4)ccc2C3=NOCCCNC(=O)CCOCCOCCOCCNc2cccc3c2C(=O)N(C2CCC(=O)NC2=O)C3=O)C1 (stereo not drawn) [RY-3-132] | > 20000 | > 20000 | > 20000 | – | – |
| CC1CC(C)CN(S(=O)(=O)c2ccc3c(c2)C(=NO)c2cc(S(=O)(=O)N4CC(C)CC(C)C4)ccc2C3=NOCCCNC(=O)CCOCCNc2cccc3c2C(=O)N(C2CCC(=O)NC2=O)C3=O)C1 (stereo not drawn) [RY-3-129] | 1350 | 554 | 1040 | – | – |
| CC1CC(C)CN(S(=O)(=O)c2ccc3c(c2)C(=NO)c2cc(S(=O)(=O)N4CC(C)CC(C)C4)ccc2C3=NOCCCNC(=O)CCNc2cccc3c2C(=O)N(C2CCC(=O)NC2=O)C3=O)C1 (stereo not drawn) [RY-3-127] | 651 | 189 | 323 | – | – |
| CC1CC(C)CN(S(=O)(=O)c2ccc3c(c2)C(=NO)c2cc(S(=O)(=O)N4CC(C)CC(C)C4)ccc2C3=NOCCCNC(=O)CCCCCCNc2cccc3c2C(=O)N(C2CCC(=O)NC2=O)C3=O)C1 (stereo not drawn) [RY-3-130] | 929 | 355 | 530 | – | – |
| CC1CC(C)CN(S(=O)(=O)c2ccc3c(c2)C(=NO)c2cc(S(=O)(=O)N4CCN(C(=O)CCCCNc5cccc6c5C(=O)N(C5CCC(=O)NC5=O)C6=O)CC4)ccc2C3=NO)C1 (stereo not drawn) [RY-3-120] | 560 | 647 | 496 | – | – |
| CC1CC(C)CN(S(=O)(=O)c2ccc3c(c2)C(=NO)c2cc(S(=O)(=O)N4CCN(C(=O)CCOCCOCCNc5cccc6c5C(=O)N(C5CCC(=O)NC5=O)C6=O)CC4)ccc2C3=NO)C1 (stereo not drawn) [RY-3-113] | > 20000 | > 20000 | > 20000 | – | – |
| CC1CC(C)CN(S(=O)(=O)c2ccc3c(c2)C(=NO)c2cc(S(=O)(=O)N4CCN(C(=O)CCCCCCNc5cccc6c5C(=O)N(C5CCC(=O)NC5=O)C6=O)CC4)ccc2C3=NO)C1 (stereo not drawn) [RY-3-108] | 605 | 343 | 439 | – | – |
| CC1CC(C)CN(S(=O)(=O)c2ccc3c(c2)C(=NO)c2cc(S(=O)(=O)N4CCN(C(=O)CCCCCCCCCCNc5cccc6c5C(=O)N(C5CCC(=O)NC5=O)C6=O)CC4)ccc2C3=NO)C1 (stereo not drawn) [RY-3-121] | 1160 | 2500 | 1160 | – | – |
| CC1CC(C)CN(S(=O)(=O)c2ccc3c(c2)C(=NO)c2cc(S(=O)(=O)N4CC(C)CC(C)C4)ccc2C3=NOCCCNC(=O)CCOCCOCCNc2cccc3c2C(=O)N(C2CCC(=O)NC2=O)C3=O)C1 (stereo not drawn) [RY-3-131] | > 20000 | 1880 | > 20000 | – | – |
| CC1CC(C)CN(S(=O)(=O)c2ccc3c(c2)C(=NO)c2cc(S(=O)(=O)N4CCN(C(=O)CCOCCOCCOCCNc5cccc6c5C(=O)N(C5CCC(=O)NC5=O)C6=O)CC4)ccc2C3=NO)C1 (stereo not drawn) [RY-3-123] | > 20000 | > 20000 | > 20000 | – | – |
| C[C@@H]1C[C@H](C)CN(S(=O)(=O)c2ccc3c(c2)C(=NO)c2cc(S(=O)(=O)N4C[C@H](C)C[C@H](C)C4)ccc2C3=NO)C1 [Tegavivint, tegavivint, reference compound] | 86 | – | – | 175 | 94 |
| CC1CC(C)CN(S(=O)(=O)c2ccc3c(c2)C(=NO)c2cc(S(=O)(=O)N4CC(C)CC(C)C4)ccc2C3=NOCCCNC(=O)CCCCCCCCCCNc2cccc3c2C(=O)N(C2CCC(=O)NC2=O)C3=O)C1 (stereo not drawn) [RY-3-124] | > 20000 | > 20000 | > 20000 | – | – |
| CC1CC(C)CN(S(=O)(=O)c2ccc3c(c2)C(=NO)c2cc(S(=O)(=O)N4CC(C)CC(C)C4)ccc2C3=NOCCCNC(=O)CCCCNc2cccc3c2C(=O)N(C2CCC(=O)NC2=O)C3=O)C1 (stereo not drawn) [RY-3-128] | 795 | 398 | 523 | – | – |
